Assay results from US7781406B2, “Production and use of the methotrexate-albumin conjugate as an immunosuppressive agent in GVHD” (Albupharm Heidelberg GmbH & Co. KG, priority 2004, dated 2010).

System: acute GVHD in F1 hybrid BN/Lew rats
Experiment: GVHD animal experiment: irradiated rats after transplantation of bone marrow cells and T lymphocytes
Format: in vivo
Conditions: methotrexate-albumin 2 mg/kg i.p. day 0, 4, 8, 12, MTX at equieffective doses
Description: Animal experiments: (authorization No. LVL M-V310-4/7221.3-1.2-015/03 Landesveterinäramt Mecklenburg-Vorpommern Rostock)
Dr. M. Freund in Rostock University clinic under the direction of PD Dr G. Hartung and Dr D. Wolff. These entailed 20 female F1 hybrid BN/Lew rats receiving whole-body irradiation with 7.5 Gy (n=10) or 9 Gy (n=10) and then transplantation of 40 million bone marrow cells and 15 million T lymphocytes from female Lew rats.

`CN(Cc1cnc2nc(N)nc(N)c2n1)c1ccc(C(=O)N[C@@H](CCC(=O)O)C(=O)O)cc1` [MTX, 4-amino-4-deoxy-10-methylfolic acid] was tested, and the side effects was “distinct side effect”.
